Source: patent US11975071B2, “Tumor ablation using low-intensity ultrasound and sound excitable drug” (CORNELL UNIVERSITY, priority 2018, dated 2024)
“Also recorded” adds a separate entry of the source.

Assays:
[1] = system: MDA-MB-468 cells; assay: Cell based ROS scavenging assay; settings: then RB4 10 μM 1 h, US 1 MHz, 1 W/cm^2, 30 s, MTS one day later; for protective effect of ROS scavenger: scavenger pretreatment 30 min
Experimental: Ceil based ROS scavenging assay: MDA-MB-468 cells (5×10^4) were treated with free radical scavengers, L-histidine (10 mM), D-mannitol (100 mM), N-acetyl cysteine (NAC, 0.5 mM), and superoxide dismutase (SOD, 100 μg/mL) for 30 minutes. The treated cells were then incubated with fresh media containing RB4 (10 μM) for an hour. After incubation, the wells were insonated (1 MHz, 1 W/cm^2, 30 sec, 100% DC) as described above. One day later, the cell's viability was assessed using the MTS solution.

[2] = system: MDA-MB-468 cells; assay: Sonotoxicity with RB4: microscopy and MTS viability assay at 24 hours; format: cell-based
Experimental: Sonotoxicity with RB4: MDA-MB-468 ceils (5×10^4) in 24 well plates were incubated in complete media with 10 μM RB4 for 1 hour prior to the ultrasound treatment. The plates were then placed on a pre-cut gel pad (2 cm×3 cm) with multipurpose ultrasound gel over a mounted handheld ultrasound transducer (5 cm^2) at 1 MHz, 1 W/cm^2 for 30 s, 100% DC. Cells were checked under an EVOS® FL Auto Cell Imaging system microscope. Cell viability at 24 hours was quantitated using an MTS assay. The plate was incubated at 37° C. for 4 hours. Absorbance was measured at 490 nm using a microplate reader.

[3] = system: HT1080, fibrosarcoma; assay: Sono-sensitivity of RB4 in a second cell line; format: cell-based; settings: RB4 + ultrasound
[4] = system: HT-1080; assay: Toxicity of RB4 to cells (IC50); format: cell-based; settings: Homo sapiens, RB4 alone
[5] = Chemical ROS assay (DCFH-DA) in solution under insonation; settings: RB4 + DCFH solution insonated with different ultrasound powers, 30 s
Experimental: Chemical ROS assay: To study the insonation induced ROS generation in solution, RB4 was tested using a modified 2′, 7′-dichlorofluorescin diacetate (DCFH-DA) assay. DCFH-DA (1 ml, 1 mM in MeOH) was hydrolyzed in NaOH aqueous solution (0.01N, 4 mL) at RT for 30 minutes to yield anon-fluorescent DCFH intermediate. The solution was neutralized with 20 mL of NaH2PO4 (25 mM) and shielded with aluminum foil. The final solution of DCFH was around 40 μM. RB4 (1.0 mg) was dissolved in DMSO (1 mL) and then diluted with water into a 20 μM solution. The RB4 solution (20 μM, 10 mL) was mixed with a DCFH solution (40 μM, 10 mL) as the test solution. The test solution (0.5 mL) was placed into each well of a 24-well plate. The DCFH solution without RB4 was included as a background control. The plates were treated with ultrasound (0.4-1.2 watt/cm^2) one well by one well for 30 seconds: and the insonated wells were then checked using a fluorescence plate reader, ex 485 nm/em 520 nm.

[6] = system: MDA-MB-468 breast cancer xenograft tumor; assay: In vivo SMRT effect using preloaded tumor cells
Experimental: In vivo sono-membrane rupture therapy (SMRT) effect using preloaded tumor cells: MDA-MB-468 cells were suspended in PBS or RB4 (10 μM) in PBS for 1 day. The cells (5×10^6, 0.1 mL) were subcutaneously injected into both flanks. The left tumors, which were only treated with PBS, were the internal control; while the right tumors were treated with RB4 (10 μM) only, ultrasound only (1 MHz, 1 W/cm^2, 100% DC, 3 minutes), or an RB4-ultrasound combination (n=7). The transducer size was 0.75 cm^2. Tumor size was measured with slide calipers on days 7,10, 14,17,21,24, 28, and 36.

[7] = system: MDA-MB-468 xenograft tumor; assay: In vivo SMRT effect with intra-tumoral injected RB4, histochemical analysis; set-up: species or system BALB/c Nu/Nu female nude mice; settings: two days after treatment
Experimental: (§1) In vivo SMRT effect with intra-tumoral injected RB4: MDA-MB-468 cells (10^7, 0.1 mL PBS) were subcutaneously inoculated into both flanks of BALB/c Nu/Nu female nude mice (5-6 weeks). The RB4 injections and ultrasound therapies were performed when the tumors had grown to approximately 4-5 mm in diameter, 20-22 days after inoculation. The tumors were treated with RB4 (10 μM, 50 μl) only, ultrasound only (1 MHz, 1 W cm2, 100% DC, 3 minutes), and a RB4-ultrasound combination (n=5), Under isoflurane anesthesia, RB4 was directly injected to the tumors of the mice. The ultrasound treatment was then performed immediately after the injection of RB4, with same transducer size. The same RB4-ultrasound treatment was performed on the thigh muscles of the mice. Histochemical analysis: Tumors and muscle tissue were harvested 2 days after therapy and the specimens were fixed in 10% formalin, cut in half, and embedded in paraffin. The paraffin sections (7 μm thick) were stained with hematoxylin-eosin (H&E). ImageJ 1.48 was used to measure the size of whole tumor and necrotic areas in the tumors.

[8] = system: MDA-MB-468 cells; assay: Mechanistic study of death process by flow cytometry (Annexin V / propidium iodide); format: cell-based; settings: RB4 10 μM + US 1 MHz, 1 W/cm^2, 30 s; one day after treatment
Experimental: Mechanistic study of death process by flow cytometry: MDA-MB-468 cells (5×10^4) were incubated in complete media with or without 10 μM RB4 for 1 hour prior to ultrasound treatment. Then the plates were insonated at 1 MHz, 1 W/cm^2, 30 sec, 100% duty cycle. Following treatment, cells were re-incubated for 1 day, 4 groups of cells (Control, RB4 alone, ultrasound alone, and RB4 combined with ultrasound) were collected and washed twice with pre-cooled PBS. Cells were stained with FITC-conjugated Annexin-Y and propidium iodide for 15 minutes as per the manufacture's instructions, and then analyzed by flow cytometry. The percentage of dead cells and those undergoing apoptosis were analyzed using flow ‘cytometry’ analysis software.

[9] = system: thigh muscle (normal muscle tissue); assay: Same RB4-ultrasound treatment on thigh muscle, histochemical analysis; format: in vivo, BALB/c Nu/Nu female nude mice; settings: RB4 + US 1 MHz, 1 W/cm^2, 3 min applied to thigh muscle; two days after treatment
Experimental: as §1

[10] = Absorption and emission spectra; format: physicochemical
[11] = system: MDA-MB-468; assay: Toxicity of RB4 to cells (IC50); format: cell-based; settings: Homo sapiens, RB4 alone

With superoxide dismutase the “protective effect of ROS scavenger” value [1] was “none, with the exception of NAC, showed any protective effects”.
In the case of `N[C@@H](Cc1c[nH]cn1)C(=O)O` [L-histidine], the “protective effect of ROS scavenger” value [1] is reported as “none, with the exception of NAC, showed any protective effects”.
For `O=C(NCCO)c1c(Cl)c(Cl)c(Cl)c(Cl)c1-c1c2cc(I)c(=O)c(I)c-2oc2c(I)c(O)c(I)cc12` [RB4, 2,3,4,5-tetrachloro-6-(6-hydroxy-2,4,5,7-tetraiodo-3-oxo-3H-xanthen-9-yl)-N-(2-hydroxyethyl)-benzamide], the cells killed ([2]; RB4 10 μM 60 min + ultrasound 1 MHz, 1 W/cm^2, 30 s, viability one day later) was “over 90%”, the “cell damage in microscopic images” value ([2]; RB4 10 μM + ultrasound 1 MHz, 1 W/cm^2, 30 s) was “significant damage” and the cell viability ([2]; RB4 alone 10 μM, 60 min, no ultrasound, MTS one day later) was over 80 % viable. The “cell damage in microscopic images” value ([2]; RB4 alone 10 μM, versus untreated) was “Little difference”, the cells killed [3] was 95% and the IC50 [4] was 157 µM. For the same molecule, the “ROS level of RB4 solution” value [5] was “not significantly different from the background level”, the “tumor growth inhibition (in words)” value ([6]; RB4 10 μM + US 1 MHz, 1 W/cm^2, 3 min, N=7) was “significant growth arrest” and the “average tumor size relative to control untreated tumor” value ([6]; RB4 10 μM preloaded cells + US 1 MHz, 1 W/cm^2, 3 min, up to 36 days) was “about 20%”. The “tumor growth inhibition (in words)” value ([6]; RB4 alone 10 μM) was “about the same as the untreated group; also recorded: no appreciable inhibition effect”, the “growth rate ratio of treated vs. untreated tumors” value ([6]; RB4 alone (cells pre-incubated with 10 μM for 1 day), up to 36 days) was “≈ 1” and the necrotic area ([7]; RB4 50 μL, 10 μM intratumoral + US 1 MHz, 1 W/cm^2, 3 min) was about 40%. For the same molecule, the “necrosis on HE staining (in words)” value ([7]; RB4 50 μl, 10 μM intratumoral + US 1 MHz, 1 W/cm^2, 3 min) was “A large necrotic area”, the “tissue damage on HE staining (in words)” value ([7]; RB4 alone 50 μl, 10 μM intratumoral) was “Little effect; also recorded: little tissue damage” and the PI positive cells [8] was 3%. For the same molecule, the annexin positive cells [8] was 8%, the “annexin/PI double positive cells” value [8] was 36% and the “damage to normal muscle tissue” value [9] was “maintained their normal structures without damage; also recorded: no damaged cells were found”. For the same molecule, the “absorption and emission (in words)” value [10] was “neither absorption nor emission above 400 nm” and the IC50 [11] was 71 µM.
For `OC[C@@H](O)[C@@H](O)[C@H](O)[C@H](O)CO` [D-mannitol], the “protective effect of ROS scavenger” value [1] was “none, with the exception of NAC, showed any protective effects”.
Work on `O=C1OC2(c3cc(I)c(O)c(I)c3Oc3c2cc(I)c(O)c3I)c2c(Cl)c(Cl)c(Cl)c(Cl)c21` [RB, Rose Bengal] yielded an absorption maximum [10] of 549 nm and an emission maximum [10] of 565 nm.
With `CC(=O)N[C@@H](CS)C(=O)O` [NAC, N-acetyl cysteine] the “fraction of cells rescued from RB4 and ultrasound combination treatment” value ([1]; scavenger pretreatment 30 min (NAC 0.5 mM)) was about 20% and the “protective effect of ROS scavenger” value [1] was “able to rescue a fraction of cells”.
